Columns and labels:
[1] = test system: PXR-SRC (steroid receptor coactivator) tethered protein; details: read-out: hypothetical Kd, circular dichroism; cited from earlier work
[2] = test system: PXR protein (without SRC); details: affinity selection-mass spectrometry; cited from earlier work
[3] = Solubility observed in TR-FRET assay dilution series; assay type: physicochemical; details: at 100 μM, TR-FRET assay buffer, […] DMSO

Row | solubility in assay [3] | SMILES | Kd [1] | Kd [2]
1 |  | CO[C@H]1/C=C/O[C@@]2(C)Oc3c(C)c(O)c4c(O)c(c(/C=N/N5CCN(C)CC5)c(O)c4c3C2=O)NC(=O)/C(C)=C\C=C\[C@H](C)[C@H](O)[C@@H](C)[C@@H](O)[C@@H](C)[C@H](OC(C)=O)[C@@H]1C [Rifampicin, 3-(4-methylpiperazinyliminomethyl)rifamycin SV] | 540 nM | […]
2 | incomplete solubility | Clc1ccccc1C(c1ccccc1)(c1ccccc1)n1ccnc1 [Clotrimazole, 1-[(2-chlorophenyl)diphenylmethyl]-1H-imidazole] | 290 nM | 330 nM
